According to patent publication US8852895B2, “Macrocyclic derivative and assemblies formed therefrom” (University College Dublin, National University of Ireland, priority 2008, dated 2014):
Several values for one entry are separate records, joined by “and”; a condition that tells them apart may be missing. Equal values may be shown once. Read-outs that look alike come from different tables or passages of the source.

Legend:
[1] = system: Cos-7 cells; conditions: cyclodextrin:DNA mass ratios of 10, 15 and 20, 1 μg DNA, FIG. 3
[2] = DLS, 0.1 mg/mL cyclodextrin in water
Experimental: A 50 μL aliquot of the stock solution (0.5 mg of cyclodextrin) was transferred to a glass vial. The solvent was evaporated slowly in order to form a thin film of cyclodextrin on the surface of the glass. Millipore water (5 mL) was then used to hydrate the film giving a cyclodextrin solution with a concentration of 0.1 mg/mL. The vial was capped and placed in an oven for 90 minutes at 60° C. The cyclodextrin solutions were then filtered through a 0.45 μm Gelman Acrodisk syringe filter into a fluorimeter cuvette to remove any particles and macro aggregates. DLS investigations of these solutions were carried out using a Malvern Autosizer 4700 equipped with an Innova 70 laser (488 nm) and a photomultiplier at an angle of 90°.

CCCCCCCCOC(=O)CCSCCCO[C@H]1[C@H]2O[C@H]3[C@H](O)[C@@H](OCCCSCCC(=O)OCCCCCCCC)[C@@H](O[C@H]4[C@H](O)[C@@H](OCCCSCCC(=O)OCCCCCCCC)[C@@H](O[C@H]5[C@H](O)[C@@H](OCCCSCCC(=O)OCCCCCCCC)[C@@H](O[C@H]6[C@H](O)[C@@H](OCCCSCCC(=O)OCCCCCCCC)[C@@H](O[C@H]7[C@H](O)[C@@H](OCCCSCCC(=O)OCCCCCCCC)[C@@H](O[C@H]8[C@H](O)[C@@H](OCCCSCCC(=O)OCCCCCCCC)[C@@H](O[C@@H]([C@@H]1O)[C@@H](CSCCN)O2)O[C@@H]8CSCCN)O[C@@H]7CSCCN)O[C@@H]6CSCCN)O[C@@H]5CSCCN)O[C@@H]4CSCCN)O[C@@H]3CSCCN.O=C(O)C(F)(F)F [heptakis[6-(2′-aminoethylthio)-2-O-octyloxycarbonylethylsulfanylpropyl]-β-cyclodextrin trifluoroacetic acid salt]
transfection (luciferase expression) compared with naked DNA and DOTAP [1]: greater than DNA on its own and greater than DOTAP | Zaverage (nm) ([2]; Day 1, filtered 0.45 μm, angle 90°, trifluoroacetic acid salt): 76 nm and 85 nm | Polydispersity ([2]; Day 7): 0.251 | Zaverage (nm) ([2]; Day 7): 82 nm
